# Reference: US10023570B2 (Array BioPharma, Inc., priority 2015, dated 2018)
# pIC50: −log10 of the molar value. Structures can show the parent of a compound that is named as a salt.
# Target: human KDR protein in HEK-293 cells (Homo sapiens (Human), UniProt P35968)
# Experiment: KDR Cell Assay (phospho-KDR in HEK-293 cells expressing inducible KDR)
# Format: cell-based
# Summary of the method: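 HEK-293 cells with inducible human KDR were treated with compound for 1 h in DMEM (0.25% DMSO final), then lysed. Phospho-KDR was quantified by Meso Scale immunoassay, expressed as percent of control, and IC50 taken where a 4-parameter logistic fit crossed 50 POC.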
# [1] = pKDR Cell HEK 10% FBS IC50, HEK-293 cells expressing inducible KDR, VEGF stimulated, 10% FBS
# [2] = pKDR Cell HEK 10% FBS IC50, HEK-293 cells expressing inducible KDR, VEGF stimulated
# Sequence of human KDR protein in HEK-293 cells (P35968 20-1356): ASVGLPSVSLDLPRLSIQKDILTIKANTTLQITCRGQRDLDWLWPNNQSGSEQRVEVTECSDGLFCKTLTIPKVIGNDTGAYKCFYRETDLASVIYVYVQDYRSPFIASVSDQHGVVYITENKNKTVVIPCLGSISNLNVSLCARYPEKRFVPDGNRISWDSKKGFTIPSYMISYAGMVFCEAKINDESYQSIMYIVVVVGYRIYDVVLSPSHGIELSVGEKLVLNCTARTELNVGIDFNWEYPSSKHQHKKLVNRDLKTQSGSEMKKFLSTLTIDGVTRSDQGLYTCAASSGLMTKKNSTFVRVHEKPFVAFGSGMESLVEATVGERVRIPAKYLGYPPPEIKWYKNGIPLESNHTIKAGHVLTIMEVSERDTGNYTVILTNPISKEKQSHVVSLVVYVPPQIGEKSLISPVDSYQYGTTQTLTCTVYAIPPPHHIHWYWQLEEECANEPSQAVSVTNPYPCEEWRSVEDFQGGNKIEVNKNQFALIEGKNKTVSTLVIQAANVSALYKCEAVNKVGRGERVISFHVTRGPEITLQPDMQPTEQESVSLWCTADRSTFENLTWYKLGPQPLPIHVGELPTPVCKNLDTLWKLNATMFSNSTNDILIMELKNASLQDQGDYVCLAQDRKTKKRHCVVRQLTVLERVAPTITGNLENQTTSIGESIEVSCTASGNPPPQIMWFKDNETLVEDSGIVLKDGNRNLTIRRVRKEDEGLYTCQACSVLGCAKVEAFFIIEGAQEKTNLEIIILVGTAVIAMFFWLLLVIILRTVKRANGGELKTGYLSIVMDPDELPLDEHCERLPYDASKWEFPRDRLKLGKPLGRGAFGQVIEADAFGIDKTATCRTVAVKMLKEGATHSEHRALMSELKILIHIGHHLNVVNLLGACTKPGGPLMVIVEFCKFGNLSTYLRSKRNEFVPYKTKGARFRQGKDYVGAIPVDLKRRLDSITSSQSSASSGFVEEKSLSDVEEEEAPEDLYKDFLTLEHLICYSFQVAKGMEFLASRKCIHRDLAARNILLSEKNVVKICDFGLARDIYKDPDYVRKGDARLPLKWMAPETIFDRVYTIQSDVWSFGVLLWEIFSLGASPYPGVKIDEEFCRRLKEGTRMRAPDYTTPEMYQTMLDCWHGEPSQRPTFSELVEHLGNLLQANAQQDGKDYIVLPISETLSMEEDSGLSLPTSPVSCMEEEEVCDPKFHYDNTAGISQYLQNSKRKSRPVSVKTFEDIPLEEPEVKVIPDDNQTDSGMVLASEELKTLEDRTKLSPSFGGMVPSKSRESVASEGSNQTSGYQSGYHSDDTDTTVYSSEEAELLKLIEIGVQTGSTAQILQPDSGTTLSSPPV
Structure (SMILES),pIC50 [1],also measured
"Cn1cc(-c2cc(-c3ccc(N4CCN(C(=O)N[C@@H]5CCOC5)CC4)nc3)c3c(C#N)cnn3c2)cn1 [Example 106, (R)-4-(5-(3-cyano-6-(1-methyl-1H-pyrazol-4-yl)pyrazolo[1,5-a]pyridin-4-yl)pyridin-2-yl)-N-(tetrahydrofuran-3-yl)piperazine-1-carboxamide]",5.86,–
"CCCCN(C(=O)N1CCN(c2ccc(-c3cc(-c4cnn(C)c4)cn4ncc(C#N)c34)cn2)CC1)c1ccccc1 [Example 377, N-butyl-4-(5-(3-cyano-6-(1-methyl-1H-pyrazol-4-yl)pyrazolo[1,5-a]pyridin-4-yl)pyridine-2-yl)-N-phenylpiperazine-1-carboxamide]",–,pIC50 [2]: 5.69
"Cn1cc(-c2cc(-c3ccc(N4CCN(C(=O)N5CCCC(F)(F)C5)CC4)nc3)c3c(C#N)cnn3c2)cn1 [Example 94, 4-(6-(4-(3,3-difluoropiperidine-1-carbonyl)piperazin-1-yl)pyridin-3-yl)-6-(1-methyl-1H-pyrazol-4-yl)pyrazolo[1,5-a]pyridine-3-carbonitrile]",5.77,–
"Cn1cc(-c2cc(-c3ccc(N4CCN(C(=O)C[C@H](NC(=O)OC(C)(C)C)c5ccccc5)CC4)nc3)c3c(C#N)cnn3c2)cn1 [Example 17, (S)-tert-butyl (3-(4-(5-(3-cyano-6-(1-methyl-1H-pyrazol-4-yl)pyrazolo[1,5-a]pyridin-4-yl)pyridin-2-yl)piperazin-1-yl)-3-oxo-1-phenylpropyl)carbamate]",7.08,–
"Cn1cc(-c2cc(-c3ccc(N4CCN(CCc5ccc(Cl)cc5)CC4)nc3)c3c(C#N)cnn3c2)cn1 [Example 140, 4-(6-(4-(4-chlorophenethyl)piperazin-1-yl)pyridin-3-yl)-6-(1-methyl-1H-pyrazol-4-yl)pyrazolo[1,5-a]pyridine-3-carbonitrile]",6.15,–
"CC[C@H](O)CN1CCN(c2ccc(-c3cc(-c4cnn(C)c4)cn4ncc(C#N)c34)cn2)CC1 [Example 150, (S)-4-(6-(4-(2-hydroxybutyl)piperazin-1-yl)pyridin-3-yl)-6-(1-methyl-1H-pyrazol-4-yl)pyrazolo[1,5-a]pyridine-3-carbonitrile]",–,pIC50 (pKDR Cell HEK 10% FBS IC50): 6.14
"Cn1cc(-c2cc(-c3ccc(N4CCN(C(=O)N5CC6COCC6C5)CC4)nc3)c3c(C#N)cnn3c2)cn1 (stereo not shown) [Example 123, 4-(6-(4-(hexahydro-1H-furo[3,4-c]pyrrole-5-carbonyl)piperazin-1-yl)pyridin-3-yl)-6-(1-methyl-1H-pyrazol-4-yl)pyrazolo[1,5-a]pyridine-3-carbonitrile]",5.79,–
"Cn1cc(-c2cc(-c3ccc(N4CCN(C(=O)c5cnccn5)CC4)nc3)c3c(C#N)cnn3c2)cn1 [Example 38, 6-(1-methyl-1H-pyrazol-4-yl)-4-(6-(4-(pyrazine-2-carbonyl)piperazin-1-yl)pyridin-3-yl)pyrazolo[1,5-a]pyridine-3-carbonitrile 2,2,2-trifluoroacetate]",6.40,–
"Cc1nn(C)cc1CN1CCN(c2ccc(-c3cc(-c4cnn(C)c4)cn4ncc(C#N)c34)cn2)CC1 [Example 440, 4-(6-(4-((1,3-dimethyl-1H-pyrazol-4-yl)methyl)piperazin-1-yl)pyridine-3-yl)-6-(1-methyl-1H-pyrazol-4-yl)pyrazolo[1,5-a]pyridine-3-carbonitrile]",–,pIC50 [2]: 5.77
"CN(C)C(=O)N1CC2(CCN(c3ccc(-c4cc(-c5cnn(C)c5)cn5ncc(C#N)c45)cn3)CC2)C1 [Example 501, 7-(5-(3-cyano-6-(1-methyl-1H-pyrazol-4-yl)pyrazolo[1,5-a]pyridin-4-yl)pyridin-2-yl)-N,N-dimethyl-2,7-diazaspiro[3.5]nonane-2-carboxamide]",–,pIC50 [2]: 6.26
"C[C@H]([C@H](O)c1ccccc1)N1CCN(c2ccc(-c3cc(-c4cnn(C)c4)cn4ncc(C#N)c34)cn2)CC1 [Example 147, 4-(6-(4-((1R,2R)-1-hydroxy-1-phenylpropan-2-yl)piperazin-1-yl)pyridin-3-yl)-6-(1-methyl-1H-pyrazol-4-yl)pyrazolo[1,5-a]pyridine-3-carbonitrile]",5.89,–
"Cn1cc(-c2cc(-c3ccc(N4CCN(Cc5cncc(F)c5)CC4)nc3)c3c(C#N)cnn3c2)cn1 [Example 423, 4-(6-(4-((5-fluoropyridin-3-yl)methyl)piperazin-1-yl)pyridin-3-yl)-6-(1-methyl-1H-pyrazol-4-yl)pyrazolo[1,5-a]pyridine-3-carbonitrile]",–,pIC50 [2]: 5.86
"Cn1cc(-c2cc(-c3ccc(N4CCN(C[C@H](O)c5cccc(Cl)c5)CC4)nc3)c3c(C#N)cnn3c2)cn1 [Example 153, (R)-4-(6-(4-(2-(3-chlorophenyl)-2-hydroxyethyl)piperazin-1-yl)pyridin-3-yl)-6-(1-methyl-1H-pyrazol-4-yl)pyrazolo[1,5-a]pyridine-3-carbonitrile]",6.78,–
"Cn1cc(-c2cc(-c3ccc(N4CCN(C(=O)N5C6CCC5CC6)CC4)nc3)c3c(C#N)cnn3c2)cn1 [Example 95, 4-(6-(4-(7-azabicyclo[2.2.1]heptane-7-carbonyl)piperazin-1-yl)pyridin-3-yl)-6-(1-methyl-1H-pyrazol-4-yl)pyrazolo[1,5-a]pyridine-3-carbonitrile]",5.88,–
"Cn1cc(-c2cc(-c3ccc(N4CCN(S(=O)(=O)C5CCOCC5)CC4)nc3)c3c(C#N)cnn3c2)cn1 [Example 91, 6-(1-methyl-1H-pyrazol-4-yl)-4-(6-(4-((tetrahydro-2H-pyran-4-yl)sulfonyl)piperazin-1-yl)pyridin-3-yl)pyrazolo[1,5-a]pyridine-3-carbonitrile]",7.22,–
"Cn1cc(-c2cc(-c3ccc(N4CCN(C(=O)N5CCCC5(C)C)CC4)nc3)c3c(C#N)cnn3c2)cn1 [Example 124, 4-(6-(4-(2,2-dimethylpyrrolidine-1-carbonyl)piperazin-1-yl)pyridin-3-yl)-6-(1-methyl-1H-pyrazol-4-yl)pyrazolo[1,5-a]pyridine-3-carbonitrile]",5.73,–

# Continued, in another order:
pIC50 [1],Structure (SMILES),also measured
6.39,"Cn1cc(-c2cc(-c3ccc(N4CCN(C(=O)C5(c6cccc(F)c6)CC5)CC4)nc3)c3c(C#N)cnn3c2)cn1 [Example 349, 4-(6-(4-(1-(3-fluorophenyl)cyclopropanecarbonyl)piperazin-1-yl)pyridin-3-yl)-6-(1-methyl-1H-pyrazol-4-yl)pyrazolo[1,5-a]pyridine-3-carbonitrile]",–
5.68,"Cn1cc(-c2cc(-c3ccc(N4CCN(C(=O)CC(C)(C)C)CC4)cc3)c3c(C#N)cnn3c2)cn1 [Example 294, 4-(4-(4-(3,3-dimethylbutanoyl)piperazin-1-yl)phenyl)-6-(1-methyl-1H-pyrazol-4-yl)pyrazolo[1,5-a]pyridine-3-carbonitrile]",–
6.22,"Cn1cc(-c2cc(-c3ccc(N4CCC5(CC4)CN(C(=O)OC(C)(C)C)C5)nc3)c3c(C#N)cnn3c2)cn1 [Example 214, tert-butyl 7-(5-(3-cyano-6-(1-methyl-1H-pyrazol-4-yl)pyrazolo[1,5-a]pyridin-4-yl)pyridin-2-yl)-2,7-diazaspiro[3.5]nonane-2-carboxylate]",–
5.73,"Cn1cc(-c2cc(-c3ccc(N4CCN(C(=O)C5(c6cnccn6)CC5)CC4)nc3)c3c(C#N)cnn3c2)cn1 [Example 350, 6-(1-methyl-1H-pyrazol-4-yl)-4-(6-(4-(1-(pyrazin-2-yl)cyclopropane-carbonyl)piperazin-1-yl)pyridin-3-yl)pyrazolo[1,5-a]pyridine-3-carbonitrile]",–
5.32,"Cn1cc(-c2cc(-c3ccc(N4CCC5(CC4)CN(C(=O)Cc4ccccc4)C5)nc3)c3c(C#N)cnn3c2)cn1 [Example 218, 6-(1-methyl-1H-pyrazol-4-yl)-4-(6-(2-(2-phenylacetyl)-2,7-diazaspiro[3.5]nonan-7-yl)pyridin-3-yl)pyrazolo[1,5-a]pyridine-3-carbonitrile]",–
7.12,"Cn1cc(-c2cc(-c3ccc(N4CCC(NC(=O)c5ccccc5)CC4)nc3)c3c(C#N)cnn3c2)cn1 [Example 184, N-(1-(5-(3-cyano-6-(1-methyl-1H-pyrazol-4-yl)pyrazolo[1,5-a]pyridin-4-yl)pyridin-2-yl)piperidin-4-yl)benzamide]",–
6.72,"Cn1cc(-c2cc(-c3ccc(N4CCN(S(C)(=O)=O)CC4)cc3)c3c(C#N)cnn3c2)cn1 [Example 297, 6-(1-methyl-1H-pyrazol-4-yl)-4-(4-(4-(methylsulfonyl)piperazin-1-yl)phenyl)pyrazolo[1,5-a]pyridine-3-carbonitrile]",–
5.91,"Cn1cc(-c2cc(-c3ccc(N4CCC(C(=O)N5CCCC5)CC4)nc3)c3c(C#N)cnn3c2)cn1 [Example 248, 6-(1-methyl-1H-pyrazol-4-yl)-4-(6-(4-(pyrrolidine-1-carbonyl)piperidin-1-yl)pyridin-3-yl)pyrazolo[1,5-a]pyridine-3-carbonitrile]",–
5.71,"CC(C)C(=O)N1CCC2(CCN(c3ccc(-c4cc(-c5cnn(C)c5)cn5ncc(C#N)c45)cn3)CC2)C1 [Example 207, 4-(6-(2-isobutyryl-2,8-diazaspiro[4.5]decan-8-yl)pyridin-3-yl)-6-(1-methyl-1H-pyrazol-4-yl)pyrazolo[1,5-a]pyridine-3-carbonitrile]",–
6.04,"Cn1cc(-c2cc(-c3ccc(N4CCNCC4)cc3)c3c(C#N)cnn3c2)cn1 [Example 291, 6-(1-methyl-1H-pyrazol-4-yl)-4-(4-(piperazin-1-yl)phenyl)pyrazolo[1,5-a]pyridine-3-carbonitrile dihydrochloride]",–
≤ 5.30,"CO[C@H]1CCN(C(=O)N2CCN(c3ccc(-c4cc(-c5ccn(C)n5)cn5ncc(C#N)c45)cn3)CC2)C1 [Example 274, (S)-4-(6-(4-(3-methoxypyrrolidine-1-carbonyl)piperazin-1-yl)pyridin-3-yl)-6-(1-methyl-1H-pyrazol-3-yl)pyrazolo[1,5-a]pyridine-3-carbonitrile]",–
5.84,"Cn1cc(-c2cc(-c3ccc(N4CCN(C(=O)CC(C)(C)C)C5(CC5)C4)nc3)c3c(C#N)cnn3c2)cn1 [Example 169, 4-(6-(4-(3,3-dimethylbutanoyl)-4,7-diazaspiro[2.5]octan-7-yl)pyridin-3-yl)-6-(1-methyl-1H-pyrazol-4-yl)pyrazolo[1,5-a]pyridine-3-carbonitrile]",–
